Patent US20240246942A1, “KINASE INHIBITORS FOR THE TREATMENT OF NEURODEGENERATIVE DISEASES” (priority 2020, published 2024)

Tests used:
Test in all cases: biochemical
[1] = molecular target: T1, panel of 374 wild-type kinases (Homo sapiens, UniProt P21709); conditions: read-out: % Enzyme Activity (relative to DMSO controls), EPHA1
T1 construct: purchased Reaction Biology Corporation
T1 sequence (P21709 26-976): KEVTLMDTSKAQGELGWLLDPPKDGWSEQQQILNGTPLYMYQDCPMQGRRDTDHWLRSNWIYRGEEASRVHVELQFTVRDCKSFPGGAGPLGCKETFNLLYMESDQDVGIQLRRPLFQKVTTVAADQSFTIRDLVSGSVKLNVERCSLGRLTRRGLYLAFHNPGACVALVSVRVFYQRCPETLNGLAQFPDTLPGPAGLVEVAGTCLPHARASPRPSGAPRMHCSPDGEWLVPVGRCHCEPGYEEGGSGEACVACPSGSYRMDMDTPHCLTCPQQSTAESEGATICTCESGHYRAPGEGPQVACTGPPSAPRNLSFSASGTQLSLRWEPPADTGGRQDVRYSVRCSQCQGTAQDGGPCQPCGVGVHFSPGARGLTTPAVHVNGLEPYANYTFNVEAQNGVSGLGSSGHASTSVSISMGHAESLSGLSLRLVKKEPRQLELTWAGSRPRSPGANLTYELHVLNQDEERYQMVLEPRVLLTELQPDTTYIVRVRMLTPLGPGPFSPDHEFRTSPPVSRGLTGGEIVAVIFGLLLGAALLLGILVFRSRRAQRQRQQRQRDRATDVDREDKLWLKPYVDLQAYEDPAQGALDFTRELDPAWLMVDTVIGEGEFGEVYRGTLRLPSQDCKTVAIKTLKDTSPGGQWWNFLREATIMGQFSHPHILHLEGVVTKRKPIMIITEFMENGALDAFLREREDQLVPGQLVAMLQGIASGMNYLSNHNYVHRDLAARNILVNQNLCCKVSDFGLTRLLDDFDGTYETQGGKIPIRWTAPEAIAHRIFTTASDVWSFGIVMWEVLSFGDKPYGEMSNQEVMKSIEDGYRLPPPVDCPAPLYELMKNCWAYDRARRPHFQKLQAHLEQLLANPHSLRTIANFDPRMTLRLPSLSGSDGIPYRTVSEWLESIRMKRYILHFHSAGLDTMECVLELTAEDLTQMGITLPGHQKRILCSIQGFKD

[2] = molecular target: T2, panel of 374 wild-type kinases (Homo sapiens, UniProt P29376); conditions: kinase TYK1/LTK, read-out: % Enzyme Activity (relative to DMSO controls)
T2 construct: purchased Reaction Biology Corporation
T2 sequence (P29376 17-864): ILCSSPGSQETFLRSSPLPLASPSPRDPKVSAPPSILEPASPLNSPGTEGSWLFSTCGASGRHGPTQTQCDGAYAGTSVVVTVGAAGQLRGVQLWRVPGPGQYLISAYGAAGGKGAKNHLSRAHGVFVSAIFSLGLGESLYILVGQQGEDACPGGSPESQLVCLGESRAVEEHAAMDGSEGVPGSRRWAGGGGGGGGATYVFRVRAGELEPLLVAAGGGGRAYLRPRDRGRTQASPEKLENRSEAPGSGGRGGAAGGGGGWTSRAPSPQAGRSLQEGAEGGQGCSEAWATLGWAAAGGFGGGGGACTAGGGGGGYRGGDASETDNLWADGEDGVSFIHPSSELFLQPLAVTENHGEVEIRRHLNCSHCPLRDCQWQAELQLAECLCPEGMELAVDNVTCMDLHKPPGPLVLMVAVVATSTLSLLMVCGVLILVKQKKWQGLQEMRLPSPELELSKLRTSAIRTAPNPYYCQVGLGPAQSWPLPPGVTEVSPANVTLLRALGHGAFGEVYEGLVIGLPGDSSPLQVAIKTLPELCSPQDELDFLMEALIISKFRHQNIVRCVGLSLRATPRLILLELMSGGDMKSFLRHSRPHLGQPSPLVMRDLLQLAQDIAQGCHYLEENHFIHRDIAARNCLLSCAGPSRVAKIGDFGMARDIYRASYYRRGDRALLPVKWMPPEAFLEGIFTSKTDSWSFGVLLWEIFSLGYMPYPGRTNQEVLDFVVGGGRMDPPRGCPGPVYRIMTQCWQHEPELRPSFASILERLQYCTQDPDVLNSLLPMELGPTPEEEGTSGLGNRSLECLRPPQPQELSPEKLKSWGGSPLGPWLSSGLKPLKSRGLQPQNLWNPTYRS

[3] = molecular target: T3, panel of 374 wild-type kinases (Homo sapiens, UniProt Q00537); conditions: read-out: % Enzyme Activity (relative to DMSO controls), CDK17/cyclin Y (PCTK2)
T3 construct: purchased Reaction Biology Corporation
T3 sequence (Q00537 whole entry): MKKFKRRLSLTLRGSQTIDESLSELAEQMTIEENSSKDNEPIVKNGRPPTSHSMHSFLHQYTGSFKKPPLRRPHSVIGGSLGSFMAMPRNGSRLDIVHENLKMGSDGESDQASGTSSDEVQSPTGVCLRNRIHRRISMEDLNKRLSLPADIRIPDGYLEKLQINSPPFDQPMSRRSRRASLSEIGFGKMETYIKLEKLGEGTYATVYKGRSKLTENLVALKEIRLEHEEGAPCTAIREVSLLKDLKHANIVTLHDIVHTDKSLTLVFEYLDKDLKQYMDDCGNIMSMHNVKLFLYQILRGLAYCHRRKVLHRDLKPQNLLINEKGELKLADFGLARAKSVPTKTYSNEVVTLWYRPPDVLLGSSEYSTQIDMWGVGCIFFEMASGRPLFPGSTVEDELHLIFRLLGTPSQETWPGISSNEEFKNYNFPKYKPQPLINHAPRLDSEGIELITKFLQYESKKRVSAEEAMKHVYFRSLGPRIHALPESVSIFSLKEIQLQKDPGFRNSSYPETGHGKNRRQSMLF

[4] = molecular target: T4, panel of 374 wild-type kinases (Homo sapiens, UniProt Q13873); conditions: read-out: % Enzyme Activity (relative to DMSO controls), BMPR2
T4 construct: purchased Reaction Biology Corporation
T4 sequence (Q13873 27-1038): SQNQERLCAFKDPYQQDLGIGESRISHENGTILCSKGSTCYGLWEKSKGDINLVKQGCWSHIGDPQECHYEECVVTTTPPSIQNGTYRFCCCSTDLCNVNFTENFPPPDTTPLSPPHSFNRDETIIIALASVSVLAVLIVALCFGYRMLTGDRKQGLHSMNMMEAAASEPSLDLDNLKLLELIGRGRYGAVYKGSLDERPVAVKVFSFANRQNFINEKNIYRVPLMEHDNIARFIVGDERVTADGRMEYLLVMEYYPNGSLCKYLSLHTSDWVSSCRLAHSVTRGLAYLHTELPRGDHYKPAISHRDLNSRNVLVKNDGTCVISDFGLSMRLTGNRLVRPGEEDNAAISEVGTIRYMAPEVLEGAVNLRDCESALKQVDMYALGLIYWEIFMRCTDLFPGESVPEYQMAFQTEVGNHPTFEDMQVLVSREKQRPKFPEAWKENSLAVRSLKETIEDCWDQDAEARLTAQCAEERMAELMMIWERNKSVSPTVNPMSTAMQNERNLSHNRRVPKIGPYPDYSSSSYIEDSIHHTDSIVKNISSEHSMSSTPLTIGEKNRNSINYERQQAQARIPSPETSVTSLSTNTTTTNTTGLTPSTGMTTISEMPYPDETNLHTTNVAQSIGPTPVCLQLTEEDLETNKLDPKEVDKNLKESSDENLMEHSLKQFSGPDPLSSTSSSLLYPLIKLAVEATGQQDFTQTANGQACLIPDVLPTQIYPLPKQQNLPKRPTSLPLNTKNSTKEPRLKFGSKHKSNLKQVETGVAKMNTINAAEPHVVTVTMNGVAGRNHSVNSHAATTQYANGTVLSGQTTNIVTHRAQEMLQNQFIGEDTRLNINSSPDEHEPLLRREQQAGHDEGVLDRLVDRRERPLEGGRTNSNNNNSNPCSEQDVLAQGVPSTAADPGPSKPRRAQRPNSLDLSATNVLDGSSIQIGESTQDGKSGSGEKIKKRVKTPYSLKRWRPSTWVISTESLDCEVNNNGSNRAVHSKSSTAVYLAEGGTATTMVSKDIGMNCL

[5] = molecular target: T5, panel of 374 wild-type kinases (Homo sapiens, UniProt Q13882); conditions: read-out: % Enzyme Activity (relative to DMSO controls), BRK
T5 construct: purchased Reaction Biology Corporation
T5 sequence (Q13882 whole entry): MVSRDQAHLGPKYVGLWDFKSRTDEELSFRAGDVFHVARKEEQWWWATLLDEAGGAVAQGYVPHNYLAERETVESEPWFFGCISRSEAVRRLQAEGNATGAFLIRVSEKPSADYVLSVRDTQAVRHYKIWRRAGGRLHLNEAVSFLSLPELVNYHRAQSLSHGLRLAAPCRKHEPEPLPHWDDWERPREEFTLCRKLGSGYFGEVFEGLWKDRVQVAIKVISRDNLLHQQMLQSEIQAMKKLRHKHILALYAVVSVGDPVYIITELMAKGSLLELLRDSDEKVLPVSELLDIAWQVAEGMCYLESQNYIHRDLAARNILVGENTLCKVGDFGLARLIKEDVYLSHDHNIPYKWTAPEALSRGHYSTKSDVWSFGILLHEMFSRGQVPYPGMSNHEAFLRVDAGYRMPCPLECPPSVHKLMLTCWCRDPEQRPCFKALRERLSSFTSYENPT

[6] = molecular target: T6, panel of 374 wild-type kinases (Homo sapiens, UniProt Q16584); conditions: read-out: % Enzyme Activity (relative to DMSO controls), MLK3/MAP3K11
T6 construct: purchased Reaction Biology Corporation
T6 sequence (Q16584 whole entry): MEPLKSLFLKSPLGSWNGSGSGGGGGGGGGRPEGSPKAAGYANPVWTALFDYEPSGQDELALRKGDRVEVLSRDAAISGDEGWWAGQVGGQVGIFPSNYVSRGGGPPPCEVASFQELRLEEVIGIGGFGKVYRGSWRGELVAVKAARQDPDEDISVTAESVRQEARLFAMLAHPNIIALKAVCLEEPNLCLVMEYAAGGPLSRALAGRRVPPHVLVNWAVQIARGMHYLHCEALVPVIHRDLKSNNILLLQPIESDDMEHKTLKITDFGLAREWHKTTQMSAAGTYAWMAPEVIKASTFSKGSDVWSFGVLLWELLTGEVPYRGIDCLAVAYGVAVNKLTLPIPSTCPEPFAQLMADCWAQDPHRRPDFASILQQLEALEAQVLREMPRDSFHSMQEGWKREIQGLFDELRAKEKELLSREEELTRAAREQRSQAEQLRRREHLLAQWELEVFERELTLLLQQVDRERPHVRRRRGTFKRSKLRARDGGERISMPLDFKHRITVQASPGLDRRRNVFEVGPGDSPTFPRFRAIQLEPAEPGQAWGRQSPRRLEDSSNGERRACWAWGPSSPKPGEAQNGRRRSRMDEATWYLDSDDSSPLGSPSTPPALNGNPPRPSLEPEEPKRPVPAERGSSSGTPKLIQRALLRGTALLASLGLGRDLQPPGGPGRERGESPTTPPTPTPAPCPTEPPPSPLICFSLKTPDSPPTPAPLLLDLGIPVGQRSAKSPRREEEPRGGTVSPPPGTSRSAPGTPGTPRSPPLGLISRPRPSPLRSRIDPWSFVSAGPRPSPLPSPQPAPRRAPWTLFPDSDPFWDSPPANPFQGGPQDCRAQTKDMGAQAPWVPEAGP

[7] = molecular target: T7, panel of 374 wild-type kinases (Homo sapiens, UniProt Q86UE8); conditions: read-out: % Enzyme Activity (relative to DMSO controls), kinase TLK2
T7 construct: purchased Reaction Biology Corporation
T7 sequence (Q86UE8 whole entry): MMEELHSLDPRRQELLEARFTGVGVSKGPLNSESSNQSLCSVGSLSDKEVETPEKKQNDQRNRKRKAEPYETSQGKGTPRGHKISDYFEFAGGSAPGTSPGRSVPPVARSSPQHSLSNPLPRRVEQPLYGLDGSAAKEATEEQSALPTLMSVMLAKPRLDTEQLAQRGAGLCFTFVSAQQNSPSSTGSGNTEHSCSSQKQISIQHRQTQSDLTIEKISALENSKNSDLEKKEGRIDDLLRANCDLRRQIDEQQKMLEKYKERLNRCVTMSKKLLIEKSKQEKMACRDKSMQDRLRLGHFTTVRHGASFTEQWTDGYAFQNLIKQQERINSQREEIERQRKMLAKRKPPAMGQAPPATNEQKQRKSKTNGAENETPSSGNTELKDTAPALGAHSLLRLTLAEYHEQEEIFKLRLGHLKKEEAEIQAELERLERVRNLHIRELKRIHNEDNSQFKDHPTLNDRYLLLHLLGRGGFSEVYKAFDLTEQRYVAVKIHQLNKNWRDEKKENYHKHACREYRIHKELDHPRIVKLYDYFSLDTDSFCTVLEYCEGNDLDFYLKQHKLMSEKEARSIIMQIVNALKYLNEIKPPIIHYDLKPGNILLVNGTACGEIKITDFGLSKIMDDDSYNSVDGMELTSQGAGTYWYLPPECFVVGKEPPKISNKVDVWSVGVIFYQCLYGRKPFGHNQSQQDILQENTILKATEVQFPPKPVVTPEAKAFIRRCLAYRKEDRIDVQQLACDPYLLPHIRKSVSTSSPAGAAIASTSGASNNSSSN

[8] = molecular target: T8, panel of 374 wild-type kinases (Homo sapiens, UniProt Q9BWU1); conditions: read-out: % Enzyme Activity (relative to DMSO controls), CDK19/cyclin C
T8 construct: purchased Reaction Biology Corporation
T8 sequence (Q9BWU1 whole entry): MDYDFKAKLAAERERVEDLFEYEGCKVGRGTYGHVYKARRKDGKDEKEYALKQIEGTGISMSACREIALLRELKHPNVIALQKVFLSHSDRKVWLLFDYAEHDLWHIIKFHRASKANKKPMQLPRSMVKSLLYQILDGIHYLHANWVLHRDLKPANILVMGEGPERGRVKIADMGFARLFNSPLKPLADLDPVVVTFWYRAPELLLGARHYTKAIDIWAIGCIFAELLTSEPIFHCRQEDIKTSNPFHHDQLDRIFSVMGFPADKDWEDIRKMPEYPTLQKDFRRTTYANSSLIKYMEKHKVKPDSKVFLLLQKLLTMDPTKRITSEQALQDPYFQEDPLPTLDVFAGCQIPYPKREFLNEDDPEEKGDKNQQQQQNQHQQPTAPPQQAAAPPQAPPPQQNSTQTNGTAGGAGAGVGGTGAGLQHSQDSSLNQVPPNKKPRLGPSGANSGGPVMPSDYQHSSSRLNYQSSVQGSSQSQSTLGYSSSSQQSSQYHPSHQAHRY

| Structure (SMILES) | remaining activity at 5 µM [1] | remaining activity at 5 µM [2] | remaining activity at 5 µM [3] | remaining activity at 5 µM [4] | remaining activity at 5 µM [5] | remaining activity at 5 µM [6] | remaining activity at 5 µM [7] | remaining activity at 5 µM [8] | remaining activity at 10 µM ([1]; 10 uM) | remaining activity at 10 µM ([2]; 10 uM) | remaining activity at 10 µM ([3]; 10 uM) | remaining activity at 10 µM ([4]; 10 uM) | remaining activity at 10 µM ([5]; 10 uM) | remaining activity at 10 µM ([6]; 10 uM) | remaining activity at 10 µM ([7]; 10 uM) | remaining activity at 10 µM ([8]; 10 uM) |
| --- | --- | --- | --- | --- | --- | --- | --- | --- | --- | --- | --- | --- | --- | --- | --- | --- |
| O=C(Nc1cnn(-c2csc(C(=O)NC3COC3)c2)c1)Nc1ccccc1Cl [Compound 17, 4-(4-(3-(2-chlorophenyl)ureido)-1H-pyrazol-1-yl)-N-(oxetan-3-yl)thiophene-2-carboxamide] | 99.1% | 99.2% | 106% | 110% | 118% | 93.5% | 99.1% | 105% | – | – | – | – | – | – | – | – |
| O=C(Nc1cnn(-c2csc(C(=O)NC3COC3)c2)c1)Nc1c(F)cccc1Cl [Compound 25, 4-(4-(3-(2-chloro-6-fluorophenyl)ureido)-1H-pyrazol-1-yl)-N-(oxetan-3-yl)thiophene-2-carboxamide] | 88.4% | 92.2% | 96% | 77.2% | 85.7% | 84.7% | 109% | 96.2% | – | – | – | – | – | – | – | – |
| Cc1sc(C(=O)NC2COC2)cc1-n1cc(NC(=O)Nc2c(F)cccc2Cl)cn1 [Compound 27, 4-(4-(3-(2-chloro-6-fluorophenyl)ureido)-1H-pyrazol-1-yl)-5-methyl-N-(oxetan-3-yl)thiophene-2-carboxamide] | – | – | – | – | – | – | – | – | 88.5% | 114% | 102% | 84.5% | 78.9% | 90.7% | 97.2% | 98.1% |
